Test results taken from US8173652B2, “Isoxazole-isoxazoles and isoxazole-isothiazoles” (Hoffmann-La Roche Inc., priority 2009, dated 2012).

biological target: T1, human GABA A receptor α5β3γ2 (Homo sapiens, UniProt P18507+P31644); test: [3H]flumazenil competition binding assay, human GABA A α5 receptor; conditions: human α5β3γ2 receptors transiently transfected in HEK293 cells; displacement of [3H]flumazenil 0.5 nM; 1 hour at 4° C.; means of two determinations; read-out: hKi GABA A α5
T1 construct: expressed in transfected cells; host or cells: HEK293 (transiently transfected), membrane preparation
Experimental: Membrane Preparation and Binding Assay
The affinity of compounds at GABA A receptor subtypes was measured by competition for [3H]flumazenil (85 Ci/mmol; Roche) binding to HEK293 cells expressing rat (stably transfected) or human (transiently transfected) receptors of composition α1β3γ2, α2β3γ2, α3β3γ2 and α5β3γ2.
Cell pellets were suspended in Krebs-tris buffer (4.8 mM KCl, 1.2 mM CaCl2, 1.2 mM MgCl2, 120 mM NaCl, 15 mM Tris; pH 7.5; binding assay buffer), homogenized by polytron for ca. 20 sec on ice and centrifuged for 60 min at 4° C. (50000 g; Sorvall, rotor: SM24=20000 rpm). The cell pellets were re-suspended in Krebs-tris buffer and homogenized by polytron for ca. 15 sec on ice. Protein was measured (Bradford method, Bio-Rad) and aliquots of 1 mL were prepared and stored at −80° C.
Radioligand binding assays were carried out in a volume of […] (96-well plates) which contained […] of cell membranes, [^3H]flumazenil at a concentration of 1 nM for α1, α2 and α3 subunits and 0.5 nM for α5 subunits and the test compound in the range of […]. Nonspecific binding was defined by 10^−5 M diazepam and typically represented less than 5% of the total binding. Assays were incubated to equilibrium for 1 hour at 4° C. and harvested onto GF/C uni-filters (Packard) by filtration using a Packard harvester and washing with ice-cold wash buffer (50 mM Tris; pH 7.5). After drying, filter-retained radioactivity was detected by liquid scintillation counting. Ki values were calculated using Excel-Fit (Microsoft) and are the means of two determinations.

Point of comparison: `Cc1onc(-c2ccccn2)c1COc1cc(C(=O)NC(C)C)on1` [Example 14, 3-(5-Methyl-3-pyridin-2-yl-isoxazol-4-ylmethoxy)-isoxazole-5-carboxylic acid isopropyl-amide], Ki 2.5 nM. Against it:
- Cc1onc(-c2ccccc2)c1COc1cc(C(=O)NC(C)CO)on1 (single isomer, unassigned) [Example 8, (R or S)-3-(5-Methyl-3-phenyl-isoxazol-4-ylmethoxy)-isoxazole-5-carboxylic acid (2-hydroxy-1-methyl-ethyl)-amide] — 5.4-fold higher, 13.5 nM
- Cc1onc(-c2ccccc2)c1COc1cc(C(=O)NC(C)CO)on1 (single isomer, unassigned) [Example 9, (S or R)-3-(5-Methyl-3-phenyl-isoxazol-4-ylmethoxy)-isoxazole-5-carboxylic acid (2-hydroxy-1-methyl-ethyl)-amide] — 9.2-fold higher, 23.1 nM
- CCCCc1noc(C)c1COc1cc(C(=O)NC2CCOC2)on1 (single isomer, unassigned) [Example 30, (R or S)-3-(3-Butyl-5-methyl-isoxazol-4-ylmethoxy)-isoxazole-5-carboxylic acid (tetrahydro-furan-3-yl)-amide] — 2.6-fold higher, 6.5 nM
- CCCCc1noc(C)c1COc1cc(C(=O)NC2CCOC2)on1 (single isomer, unassigned) [Example 31, (S or R)-3-(3-Butyl-5-methyl-isoxazol-4-ylmethoxy)-isoxazole-5-carboxylic acid (tetrahydro-furan-3-yl)-amide] — within 1.5-fold, 2.8 nM
- CCCCc1noc(C)c1/C=C/c1cc(C(=O)NCCO)on1 [Example 1, 3-[(E)-2-(3-Butyl-5-methyl-isoxazol-4-yl)-vinyl]-isoxazole-5-carboxylic acid (2-hydroxy-ethyl)-amide] — 11-fold higher, 28.6 nM
- Cc1onc(-c2ccccc2)c1COc1cc(C(=O)NC(C)C)on1 [Example 3, 3-(5-Methyl-3-phenyl-isoxazol-4-ylmethoxy)-isoxazole-5-carboxylic acid isopropylamide] — 3-fold higher, 7.5 nM
- Cc1onc(-c2ccccc2)c1COc1cc(C(=O)NC2CCOC2)on1 (stereo not shown) [Example 4, 3-(5-Methyl-3-phenyl-isoxazol-4-ylmethoxy)-isoxazole-5-carboxylic acid (tetrahydro-furan-3-yl)-amide] — 1.8-fold higher, 4.4 nM
- Cc1onc(-c2ccccc2)c1COc1cc(C(=O)NCCO)on1 [Example 5, 3-(5-Methyl-3-phenyl-isoxazol-4-ylmethoxy)-isoxazole-5-carboxylic acid (2-hydroxy-ethyl)-amide] — 3.2-fold higher, 8 nM
- Cc1onc(-c2ccccc2)c1COc1cc(C(=O)NC(C)CO)on1 (stereo not shown) [Example 6, 3-(5-Methyl-3-phenyl-isoxazol-4-ylmethoxy)-isoxazole-5-carboxylic acid (2-hydroxy-1-methyl-ethyl)-amide] — 3.5-fold higher, 8.8 nM
- CC(=O)OCCNC(=O)c1cc(OCc2c(-c3ccccc3)noc2C)no1 [Example 7, Acetic acid 2-{[3-(5-methyl-3-phenyl-isoxazol-4-ylmethoxy)-isoxazole-5-carbonyl]-amino}-ethyl ester] — 6.7-fold higher, 16.8 nM
- Cc1onc(-c2ccccc2)c1COc1cc(C(=O)NN(C)C)on1 [Example 10, 3-(5-Methyl-3-phenyl-isoxazol-4-ylmethoxy)-isoxazole-5-carboxylic acid N′,N′-dimethyl-hydrazide] — 8.9-fold higher, 22.2 nM
- Cc1onc(-c2ccccc2)c1COc1cc(C(=O)NN2CCCCC2)on1 [Example 11, 3-(5-Methyl-3-phenyl-isoxazol-4-ylmethoxy)-isoxazole-5-carboxylic acid piperidin-1-yl-amide] — 5.5-fold higher, 13.8 nM
- Cc1onc(-c2ccccc2)c1COc1cc(C(=O)NN2CCCC2)on1 [Example 12, 3-(5-Methyl-3-phenyl-isoxazol-4-ylmethoxy)-isoxazole-5-carboxylic acid pyrrolidin-1-yl-amide] — 7.4-fold higher, 18.5 nM
- Cc1onc(-c2ccccc2)c1COc1cc(C(=O)NN2CCOCC2)on1 [Example 13, 3-(5-Methyl-3-phenyl-isoxazol-4-ylmethoxy)-isoxazole-5-carboxylic acid morpholin-4-ylamide] — within 1.5-fold, 2.8 nM
- Cc1onc(-c2ccccn2)c1COc1cc(C(=O)NCCO)on1 [Example 15, 3-(5-Methyl-3-pyridin-2-yl-isoxazol-4-ylmethoxy)-isoxazole-5-carboxylic acid (2-hydroxy-ethyl)-amide] — within 1.5-fold, 3 nM
- Cc1onc(-c2ccccn2)c1COc1cc(C(=O)NC2CCOC2)on1 (stereo not shown) [Example 16, 3-(5-Methyl-3-pyridin-2-yl-isoxazol-4-ylmethoxy)-isoxazole-5-carboxylic acid (tetrahydro-furan-3-yl)-amide] — 1.8-fold lower, 1.4 nM
- Cc1onc(-c2ccccn2)c1COc1cc(C(=O)NCC(F)(F)F)on1 [Example 17, 3-(5-Methyl-3-pyridin-2-yl-isoxazol-4-ylmethoxy)-isoxazole-5-carboxylic acid (2,2,2-trifluoro-ethyl)-amide] — within 1.5-fold, 2.3 nM
- Cc1onc(-c2ccccn2)c1COc1cc(C(=O)NN(C)C)on1 [Example 18, 3-(5-Methyl-3-pyridin-2-yl-isoxazol-4-ylmethoxy)-isoxazole-5-carboxylic acid N′,N′-dimethyl-hydrazide] — 3.6-fold higher, 8.9 nM
- Cc1onc(-c2ccccn2)c1COc1cc(C(=O)NN2CCOCC2)on1 [Example 19, 3-(5-Methyl-3-pyridin-2-yl-isoxazol-4-ylmethoxy)-isoxazole-5-carboxylic acid morpholin-4-ylamide] — within 1.5-fold, 2 nM
- Cc1onc(-c2ccccn2)c1COc1cc(C(=O)NN2CCCCC2)on1 [Example 20, 3-(5-Methyl-3-pyridin-2-yl-isoxazol-4-ylmethoxy)-isoxazole-5-carboxylic acid piperidin-1-ylamide] — 2.4-fold higher, 6 nM
- Cc1onc(-c2ccccn2)c1COc1cc(C(=O)NN2CCCC2)on1 [Example 21, 3-(5-Methyl-3-pyridin-2-yl-isoxazol-4-ylmethoxy)-isoxazole-5-carboxylic acid pyrrolidin-1-ylamide] — 3.1-fold higher, 7.8 nM
- Cc1onc(-c2ccc(F)cn2)c1COc1cc(C(=O)NC(C)C)on1 [Example 22, 3-[3-(5-Fluoro-pyridin-2-yl)-5-methyl-isoxazol-4-ylmethoxy]-isoxazole-5-carboxylic acid isopropylamide] — within 1.5-fold, 1.7 nM
- Cc1onc(-c2ccc(F)cn2)c1COc1cc(C(=O)NCCO)on1 [Example 23, 3-[3-(5-Fluoro-pyridin-2-yl)-5-methyl-isoxazol-4-ylmethoxy]-isoxazole-5-carboxylic acid (2-hydroxy-ethyl)-amide] — within 1.5-fold, 2.2 nM
- CCCCc1noc(C)c1COc1cc(C(=O)NCCO)on1 [Example 24, 3-(3-Butyl-5-methyl-isoxazol-4-ylmethoxy)-isoxazole-5-carboxylic acid (2-hydroxy-ethyl)-amide] — 8.9-fold higher, 22.2 nM
- CCCCc1noc(C)c1COc1cc(C(=O)NC(C)CO)on1 (stereo not shown) [Example 25, 3-(3-Butyl-5-methyl-isoxazol-4-ylmethoxy)-isoxazole-5-carboxylic acid (2-hydroxy-1-methyl-ethyl)-amide] — 11-fold higher, 27.7 nM
- CCCCc1noc(C)c1COc1cc(C(=O)N[C@@H](C)CO)on1 [Example 26, 3-(3-Butyl-5-methyl-isoxazol-4-ylmethoxy)-isoxazole-5-carboxylic acid ((S)-2-hydroxy-1-methyl-ethyl)-amide] — 9.1-fold higher, 22.7 nM
- CCCCc1noc(C)c1COc1cc(C(=O)N[C@H](C)CO)on1 [Example 27, 3-(3-Butyl-5-methyl-isoxazol-4-ylmethoxy)-isoxazole-5-carboxylic acid ((R)-2-hydroxy-1-methyl-ethyl)-amide] — 15-fold higher, 38 nM
- CCCCc1noc(C)c1COc1cc(C(=O)NC(C)C)on1 [Example 28, 3-(3-Butyl-5-methyl-isoxazol-4-ylmethoxy)-isoxazole-5-carboxylic acid isopropylamide] — 9.8-fold higher, 24.6 nM
- CCCCc1noc(C)c1COc1cc(C(=O)NC2CCOC2)on1 (stereo not shown) [Example 29, 3-(3-Butyl-5-methyl-isoxazol-4-ylmethoxy)-isoxazole-5-carboxylic acid (tetrahydro-furan-3-yl)-amide] — 3.4-fold higher, 8.5 nM
- CCCCc1noc(C)c1COc1cc(C(=O)NN(C)C)on1 [Example 32, 3-(3-Butyl-5-methyl-isoxazol-4-ylmethoxy)-isoxazole-5-carboxylic acid N′,N′-dimethyl-hydrazide] — 23-fold higher, 56.8 nM
- CCCCc1noc(C)c1COc1cc(C(=O)NN2CCOCC2)on1 [Example 33, 3-(3-Butyl-5-methyl-isoxazol-4-ylmethoxy)-isoxazole-5-carboxylic acid morpholin-4-ylamide] — 4.2-fold higher, 10.4 nM
- Cc1onc(-c2ccccc2)c1COc1cc(C(=O)NC(C)C)sn1 [Example 34, 3-(5-Methyl-3-phenyl-isoxazol-4-ylmethoxy)-isothiazole-5-carboxylic acid isopropylamide] — 11-fold higher, 28 nM
- Cc1onc(-c2ccccc2)c1COc1cc(C(=O)NCCO)sn1 [Example 35, 3-(5-Methyl-3-phenyl-isoxazol-4-ylmethoxy)-isothiazole-5-carboxylic acid (2-hydroxy-ethyl)-amide] — 14-fold higher, 35 nM
